Counter-ions that a name gives are not always drawn.
biological target: T1, hCaV2.2 (Homo sapiens, UniProt Q00975); assay: hCaV2.2 assay, IonWorks planar array electrophysiology in stably transfected HEK293 cells; format: cell-based; conditions: current elicited by the 1st depolarising pulse inhibited by 50%; HEK293 cells expressing human CaV2.2 alpha/beta3/alpha2delta1; read-out: mean pIC50 (tonic pIC50) (converted)
T1 construct: expressed in transfected cells; plasmids pCIN5-hCaV2.2, pCIH-hCaV β3, pCIP-α2δ1
Experimental: Compounds of the invention may be tested for in vitro biological activity in the hCaV2.2 assay in accordance with the following studies:
Stable cell lines expressing the human CaV2.2 α (als) subunit, along with the human […] and α2δ1 auxiliary subunits were created following sequential transfection and selection of human embryonic kidney (HEK293) cells. HEK293 cells were cultured in Dulbecco's modified Eagles media/F12 media (Invitrogen, Cat #041-95750V) containing 10% foetal bovine serum, with added L-glutamine (2 mM; Invitrogen, Cat #25030-024) and non-essential amino acids (5%; Invitrogen, Cat #11140-035). Initially HEK293 cells were transfected with two plasmid vectors for expression of the hCaV2.2 α subunit (pCIN5-hCaV2.2 which carries a neomycin resistance marker) and the hCaV β3 subunit (pCIH-hCaV β3 which carries a hygromycin resistance marker). Clonal cell lines were isolated following selection in media supplemented with 0.4 mg ml^−1 Geneticin G418 (Invitrogen, Cat #10131-027) and 0.1 mg ml^1 hygromycin (Invitrogen, Cat #10687-010). These clonal cell lines were assessed for Cav2.2α/β3-mediated current expression using the IonWorks planar array electrophysiology technology (described below). A clonal line was identified that gave a reasonable level of functional Cav2.2α/β3 current expression. This cell line was transfected with a plasmid vector for expression of the human […] subunit (pCIP-α2δ1 which carries a puromycin resistance marker) and clonal cell lines isolated following selection in media containing 0.62 μg ml^−1 puromycin (Sigma, Cat #P-7255), in addition to 0.4 mg ml^−1 Geneticin G418 and 0.1 mg ml^−1 hygromycin. Several cell lines were identified that gave robust levels of Cav2.2α/β3/α2δ1-mediated current expression and one of these was selected for compound profiling. Expression of all three subunits within this cell line was continuously maintained by the inclusion of G418 (0.4 mg ml^−1), hygromycin (0.1 mg ml^−1) and puromycin (0.62 μg ml^−1). Cells were maintained at 37° C. in a humidified environment containing 5% CO2 in air. Cells were liberated from the T175 culture flasks for passage and harvesting using TrpLE (Invitrogen, Cat #12604-013).
Cells were grown to 30-60% confluence in T175 flasks and maintained at 30° C. for 24 hrs prior to recording. Cells were lifted by removing the growth media, washing with Ca^2+ free PBS (Invitrogen, Cat #14190-094) and incubating with 3 ml of warmed (37° C.) TrpLE (Invitrogen, Cat #12604-013) for 6 minutes. Lifted cells were suspended in 10 ml of extracellular buffer. Cell suspension was then placed into a 15 ml tube and centrifuged for 2 minutes at 700 rpm. After centrifugation, the supernatant was removed and the cell pellet was resuspended in 4.5 ml of extracellular solution.
Currents were recorded at room temperature (21-23° C.) using the IonWorks planar array electrophysiology technology (Molecular Devices Corp.). Stimulation protocols and data acquisition were carried out using a microcomputer (Dell Pentium 4). In order to determine planar electrode hole resistances (Rp), a 10 mV, 160 ms potential difference was applied across each hole. These measurements were performed before cell addition. After cell addition a seal test was performed prior to antibiotic (amphotericin) circulation to achieve intracellular access. Leak subtraction was conducted in all experiments by applying a 160 ms hyperpolarizing (10 mV) prepulse 200 ms before the test pulses to measure leak conductance. Test pulses stepping from the holding potential (VH) of −90 mV to +10 mV were applied for 20 ms and repeated 10 times at a frequency of 10 Hz. In all experiments, the test pulse protocol was performed in the absence (pre-read) and presence (post-read) of a compound. Pre- and post-reads were separated by a compound addition followed by a 3-3.5 min incubation.
The intracellular solution contained the following (in mM): K-gluconate 120, KCl 20 mM, MgCl2 5, EGTA 5, HEPES 10, adjusted to pH 7.3. […]

T1 sequence (Q00975 whole entry): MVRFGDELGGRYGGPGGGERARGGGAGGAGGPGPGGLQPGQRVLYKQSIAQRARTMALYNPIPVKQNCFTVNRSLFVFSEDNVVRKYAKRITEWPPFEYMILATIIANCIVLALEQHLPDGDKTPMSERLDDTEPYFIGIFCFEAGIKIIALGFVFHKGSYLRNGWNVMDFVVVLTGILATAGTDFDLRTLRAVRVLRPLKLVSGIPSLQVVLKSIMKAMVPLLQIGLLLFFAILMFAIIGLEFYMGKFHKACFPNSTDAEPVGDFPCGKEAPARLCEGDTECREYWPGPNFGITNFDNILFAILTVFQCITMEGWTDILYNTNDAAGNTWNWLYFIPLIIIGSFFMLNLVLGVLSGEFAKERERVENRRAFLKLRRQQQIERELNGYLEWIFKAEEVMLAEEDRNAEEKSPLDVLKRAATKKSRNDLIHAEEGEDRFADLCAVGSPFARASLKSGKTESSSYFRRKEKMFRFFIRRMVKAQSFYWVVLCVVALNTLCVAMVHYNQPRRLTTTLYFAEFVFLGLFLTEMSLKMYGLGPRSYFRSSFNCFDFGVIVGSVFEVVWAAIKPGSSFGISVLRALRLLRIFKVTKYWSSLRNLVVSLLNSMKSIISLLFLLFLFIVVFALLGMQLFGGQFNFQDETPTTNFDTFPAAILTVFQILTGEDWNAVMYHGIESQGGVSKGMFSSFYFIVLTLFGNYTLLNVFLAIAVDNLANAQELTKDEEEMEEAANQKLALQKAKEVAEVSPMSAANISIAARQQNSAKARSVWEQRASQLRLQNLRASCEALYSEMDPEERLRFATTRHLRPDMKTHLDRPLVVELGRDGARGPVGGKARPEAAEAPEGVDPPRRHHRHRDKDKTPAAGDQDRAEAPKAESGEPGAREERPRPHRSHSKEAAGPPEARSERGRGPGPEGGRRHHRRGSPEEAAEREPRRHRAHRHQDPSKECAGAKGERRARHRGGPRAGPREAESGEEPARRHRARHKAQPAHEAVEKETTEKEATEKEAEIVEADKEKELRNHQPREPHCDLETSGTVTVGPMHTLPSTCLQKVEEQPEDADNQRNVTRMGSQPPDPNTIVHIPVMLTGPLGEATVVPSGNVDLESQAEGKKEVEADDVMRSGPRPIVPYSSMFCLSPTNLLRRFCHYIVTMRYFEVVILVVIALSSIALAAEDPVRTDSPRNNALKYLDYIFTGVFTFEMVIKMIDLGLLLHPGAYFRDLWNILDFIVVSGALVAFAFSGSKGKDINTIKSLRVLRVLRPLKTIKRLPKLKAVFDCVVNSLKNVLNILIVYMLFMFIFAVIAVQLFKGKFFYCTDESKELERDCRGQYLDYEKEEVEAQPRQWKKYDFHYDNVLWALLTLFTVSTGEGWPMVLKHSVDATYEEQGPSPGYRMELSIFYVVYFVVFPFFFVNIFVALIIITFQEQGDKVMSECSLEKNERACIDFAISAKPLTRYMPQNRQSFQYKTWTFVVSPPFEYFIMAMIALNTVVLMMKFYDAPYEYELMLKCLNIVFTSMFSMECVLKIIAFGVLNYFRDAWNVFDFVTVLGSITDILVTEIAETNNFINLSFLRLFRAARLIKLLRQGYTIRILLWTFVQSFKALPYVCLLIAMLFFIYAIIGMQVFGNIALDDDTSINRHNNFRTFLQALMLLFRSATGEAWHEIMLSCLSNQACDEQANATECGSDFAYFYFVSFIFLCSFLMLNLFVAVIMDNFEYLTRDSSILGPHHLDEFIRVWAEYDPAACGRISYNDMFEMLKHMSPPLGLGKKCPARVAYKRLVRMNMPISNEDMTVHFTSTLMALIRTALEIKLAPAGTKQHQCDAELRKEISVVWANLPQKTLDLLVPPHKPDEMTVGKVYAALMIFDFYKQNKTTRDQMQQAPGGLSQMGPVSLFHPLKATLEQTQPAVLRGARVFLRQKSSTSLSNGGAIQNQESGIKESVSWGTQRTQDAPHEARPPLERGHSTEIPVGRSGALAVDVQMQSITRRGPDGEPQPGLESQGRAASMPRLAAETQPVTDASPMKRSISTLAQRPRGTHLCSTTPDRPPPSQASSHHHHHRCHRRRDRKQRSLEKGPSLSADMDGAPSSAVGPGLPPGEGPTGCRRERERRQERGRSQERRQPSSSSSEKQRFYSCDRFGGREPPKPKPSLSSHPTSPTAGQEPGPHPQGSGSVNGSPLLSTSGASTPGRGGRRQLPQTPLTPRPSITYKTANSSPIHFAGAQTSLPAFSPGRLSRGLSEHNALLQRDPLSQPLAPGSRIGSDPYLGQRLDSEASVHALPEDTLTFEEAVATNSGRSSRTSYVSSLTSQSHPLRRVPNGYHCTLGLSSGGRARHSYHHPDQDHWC

`Cc1cc(C)c(C(=O)N2CCN(S(=O)(=O)c3ccc(C#N)cc3C)C[C@@H]2C)cn1` [Example 68, 4-({(3S)-4-[(4,6-dimethyl-3-pyridinyl)carbonyl]-3-methyl-1-piperazinyl}sulfonyl)-3-methylbenzonitrile] and `Cc1ccc(C(=O)N2CCN(S(=O)(=O)c3ccc(C#N)cc3C)C[C@H]2C)cn1` [Example 63, 3-methyl-4-({(3R)-3-methyl-4-[(6-methyl-3-pyridinyl)carbonyl]-1-piperazinyl}sulfonyl)benzo-nitrile] cannot be ordered by IC50: at least 31.6 µM for the first, at least 31.6 µM for the second.

`Cc1ccc(C(=O)N2CCN(S(=O)(=O)c3ccc(C(F)(F)F)cc3C)CC2)cn1` [Example 74, 1-[(6-methyl-3-pyridinyl)carbonyl]-4-{[2-methyl-4-(trifluoromethyl)phenyl]sulfonyl}piperazine] and `Cc1ccc(C(F)(F)F)cc1S(=O)(=O)N1CCN(C(=O)c2cccnc2C)CC1` [Example 62, 1-[(2-methyl-3-pyridinyl)carbonyl]-4-{[2-methyl-5-(trifluoromethyl)phenyl]sulfon-yl}piperazine] cannot be ordered by IC50: at least 31.6 µM for the first, at least 31.6 µM for the second.

`Cc1cc(C#N)ccc1S(=O)(=O)N1CCN(C(=O)c2ccc(N(C)C)nc2C)[C@@H](C)C1` [Example 30, 4-[((3S)-4-{[6-(Dimethylamino)-2-methyl-3-pyridinyl]carbonyl}-3-methyl-1-piperazinyl)sulfonyl]-3-methylbenzonitrile hydrochloride] and `CNc1ccc(C(=O)N2CCN(S(=O)(=O)c3ccc(C#N)cc3C)C[C@@H]2C)c(C)n1` [Example 38, 3-Methyl-4-[((3S)-3-methyl-4-{[2-methyl-6-(methylamino)-3-pyridinyl]carbonyl}-1-piperazinyl)sulfonyl]benzonitrile] cannot be ordered by IC50: at least 10 µM for the first, at least 31.6 µM for the second.

`Cc1ccc(C(=O)N2CCN(S(=O)(=O)c3ccc(C#N)cc3C)[C@@H](C)C2)cn1` [Example 52, 3-methyl-4-({(2S)-2-methyl-4-[(6-methyl-3-pyridinyl)carbonyl]-1-piperazinyl}sulfonyl)benzonitrile hydrochloride] and `Cc1cc(C#N)ccc1S(=O)(=O)N1CCN(C(=O)c2ccc(N(C)C)nc2)[C@@H](C)C1` [Example 71, 4-[((3S)-4-{[6-(dimethylamino)-3-pyridinyl]carbonyl}-3-methyl-1-piperazinyl)sulfonyl]-3-methylbenzonitrile] cannot be ordered by IC50: at least 31.6 µM for the first, at least 31.6 µM for the second.

`Cc1ccc(C(=O)N2CCN(S(=O)(=O)c3ccc(OC(F)(F)F)cc3)C[C@@H]2C)cn1` [Example 21, (2S)-2-Methyl-1-[(6-methyl-3-pyridinyl)carbonyl]-4-({4-[(trifluoromethyl)oxy]phenyl}sulfonyl)piperazine] and `Cc1ccc(C(=O)N2CCN(S(=O)(=O)c3ccc(C(F)(F)F)cc3)C[C@H]2C)cn1` [Example 19, (2R)-2-methyl-1-[(6-methyl-3-pyridinyl)carbonyl]-4-{[4-(trifluoromethyl)phenyl]sulfonyl}piperazine formic acid salt (1:1)] cannot be ordered by IC50: at least 31.6 µM for the first, at least 31.6 µM for the second.

`C[C@H]1CN(S(=O)(=O)c2ccc(C(F)(F)F)cc2)CCN1C(=O)c1cncc(Br)c1` [Example 28, (2S)-1-[(5-Bromo-3-pyridinyl)carbonyl]-2-methyl-4-{[4-(trifluoromethyl)phenyl]sulfonyl}piperazine] and `Cc1cncc(C(=O)N2CCN(S(=O)(=O)c3ccc(C(F)(F)F)cc3)C[C@@H]2C)c1` [Example 16, (2S)-2-Methyl-1-[(5-methyl-3-pyridinyl)carbonyl]-4-{[4-(trifluoromethyl)phenyl]sulfonyl}piperazine] cannot be ordered by IC50: at least 10 µM for the first, at least 31.6 µM for the second.

`Cc1ccc(C(=O)N2CCN(S(=O)(=O)c3ccc(OC(F)(F)F)cc3)CC2)cn1` [Example 23, 1-[(6-Methyl-3-pyridinyl)carbonyl]-4-({4-[(trifluoromethyl)oxy]phenyl}sulfonyl)piperazine] and `CN(C)c1ccc(C(=O)N2CCN(S(=O)(=O)c3ccc(C(F)(F)F)cc3)CC2)cn1` [Example 57, N,N-dimethyl-5-[(4-{[4-(trifluoromethyl)phenyl]sulfonyl}-1-piperazinyl)carbonyl]-2-pyridinamine] cannot be ordered by IC50: at least 31.6 µM for the first, at least 31.6 µM for the second.

`Cc1nc(N2CCC2)ccc1C(=O)N1CCN(S(=O)(=O)c2ccc(C(F)(F)F)cc2)C[C@@H]1C` [Example 39, (2S)-1-{[6-(1-Azetidinyl)-2-methyl-3-pyridinyl]carbonyl}-2-methyl-4-{[4-(trifluoromethyl)phenyl]sulfonyl}piperazine hydrochloride] and `Cc1nc(N2CCOCC2)ccc1C(=O)N1CCN(S(=O)(=O)c2ccc(C(F)(F)F)cc2)C[C@@H]1C` [Example 34, 4-{6-Methyl-5-[((2S)-2-methyl-4-{[4-(trifluoromethyl)phenyl]sulfonyl}-1-piperazinyl)carbonyl]-2-pyridinyl}morpholine hydrochloride] cannot be ordered by IC50: at least 31.6 µM for the first, at least 10 µM for the second.

`C[C@H]1CN(S(=O)(=O)c2ccc(C(F)(F)F)cc2)CCN1C(=O)c1ccc(N(C)C)nc1` [Example 41, N,N-Dimethyl-5-[((2S)-2-methyl-4-{[4-(trifluoromethyl)phenyl]sulfonyl}-1-piperazinyl)carbonyl]-2-pyridinamine hydrochloride] and `CNc1ccc(C(=O)N2CCN(S(=O)(=O)c3ccc(C(F)(F)F)cc3)C[C@@H]2C)cn1` [Example 44, Methyl-5-[((2S)-2-methyl-4-{[4-(trifluoromethyl)phenyl]sulfonyl}-1-piperazinyl)carbonyl]-2-pyridinamine hydrochloride] cannot be ordered by IC50: at least 10 µM for the first, at least 10 µM for the second.

`C[C@H]1CN(S(=O)(=O)c2ccc(C(F)(F)F)cc2)CCN1C(=O)c1ccc(N2CCOCC2)nc1` [Example 42, 4-{5-[((2S)-2-Methyl-4-{[4-(trifluoromethyl)phenyl]sulfonyl}-1-piperazinyl)carbonyl]-2-pyridinyl}morpholine hydrochloride] and `O=C(c1ccc(N2CCOCC2)nc1)N1CCN(S(=O)(=O)c2ccc(C(F)(F)F)cc2)CC1` [Example 6, 4-{5-[(4-{[4-(Trifluoromethyl)phenyl]sulfonyl}-1-piperazinyl)carbonyl]-2-pyridinyl}morpholine] cannot be ordered by IC50: at least 10 µM for the first, at least 31.6 µM for the second.

`Cc1ncccc1C(=O)N1CCN(S(=O)(=O)c2ccc(C(F)(F)F)cc2)C[C@H]1C` [Example 20, (2R)-2-methyl-1-[(2-methyl-3-pyridinyl)carbonyl]-4-{[4-(trifluoromethyl)phenyl]sulfonyl}piperazine formic acid salt (1:1)] and `Cc1ccc(C(=O)N2CCN(S(=O)(=O)c3ccc(C#N)cc3)C[C@@H]2C)cn1` [Example 72, 4-({(3S)-3-methyl-4-[(6-methyl-3-pyridinyl)carbonyl]-1-piperazinyl}sulfonyl)benzo-nitrile] cannot be ordered by IC50: at least 31.6 µM for the first, at least 31.6 µM for the second.

`Cc1cc(C#N)ccc1S(=O)(=O)N1CCN(C(=O)c2ccc(N3CCOCC3)nc2C)[C@@H](C)C1` [Example 35, 3-Methyl-4-[((3S)-3-methyl-4-{[2-methyl-6-(4-morpholinyl)-3-pyridinyl]carbonyl}-1-piperazinyl)sulfonyl]benzonitrile hydrochloride] and `Cc1cc(C#N)ccc1S(=O)(=O)N1CCN(C(=O)c2ccc(N3CCC3)nc2C)[C@@H](C)C1` [Example 40, 4-[((38)-4-{[6-(1-Azetidinyl)-2-methyl-3-pyridinyl]carbonyl}-3-methyl-1-piperazinyl)sulfonyl]-3-methylbenzonitrile hydrochloride] cannot be ordered by IC50: at least 10 µM for the first, at least 31.6 µM for the second.

`O=C(c1cccnc1)N1CCN(S(=O)(=O)c2ccc(C(F)(F)F)cc2)CC1` [Example 3, 1-(3-Pyridinylcarbonyl)-4-{[4-(trifluoromethyl)phenyl]sulfonyl}piperazine] was tested, and the IC50 was at least 31.6 µM.

Reference: patent US8536183B2, “3-pyridylcarbonyl-piperazinylsulfonyl derivatives” (Convergence Pharmaceuticals Limited, priority 2008, dated 2013)
